In ChEMBL document CHEMBL1132024, “N-phosphonoalkyl-5-aminomethylquinoxaline-2,3-diones: in vivo active AMPA and NMDA(glycine) antagonists” (Bioorg Med Chem Lett, 1999):

How the values were obtained:
[1] = test system: Mus musculus; assay: In vivo anticonvulsant effects in the electroshock induced convulsion in mice after 50 mg/kg intraperitoneal administration and 30 min pretreatment time; type: functional
[2] = target: Glutamate receptor ionotropic, AMPA (Rattus norvegicus, UniProt P19490+P19491+P19492+P19493); assay: (§1) In vitro inhibition of binding of [3H]AMPA towards AMPA receptor in rat
[3] = target: Glutamate NMDA receptor; assay: In vitro inhibition of binding of [3H]MDL-105519 towards glycine binding site of NMDA receptor in rat
[4] = target: Glutamate receptor ionotropic, NMDA 1 (Rattus norvegicus) (UniProt P35439); assay: In vitro inhibition of binding of [3H]MDL-105519 towards glycine binding site of NMDA receptor in rat at a concentration of 1 uM
[5] = test system: Mus musculus; assay: In vivo anticonvulsant effects on electroshock induced convulsion in mice after i.p. administration and 30 min pretreatment.; type: functional; settings: ip
[6] = target: Glutamate receptor ionotropic, NMDA 1 (Rattus norvegicus) (UniProt P35439); assay: In vitro inhibition of binding of [3H]MDL-105,519 towards glycine binding site of NMDA receptor in rat; settings: concentration not given here
[7] = target: Glutamate receptor ionotropic, AMPA (Rattus norvegicus) (UniProt P19491+P19492+P19493+P19490); assay: as §1; settings: concentration not given here
[8] = test system: Mus musculus; assay: In vivo anticonvulsant effects in the electroshock induced convulsion in mice after 50 mg/kg intraperitoneal administration and 1 hr pretreatment time; type: functional
[9] = target: Glutamate receptor ionotropic, AMPA (Rattus norvegicus, UniProt P19491+P19492+P19493+P19490); assay: In vitro inhibition of binding of [3H]-AMPA towards AMPA receptor in rat; No affinity
[10] = test system: Mus musculus; assay: In vivo anticonvulsant effects in the electroshock induced convulsion in mice after intraperitoneal administration and 1 hr pretreatment time; type: functional; settings: ip
[11] = Partition coefficient (logP); type: physicochemical; settings: octanol/water
[12] = test system: Mus musculus; assay: In vivo anticonvulsant effects in the electroshock induced convulsion in mice after intraperitoneal administration and 2 hr pretreatment time; type: functional; settings: ip
[13] = test system: Mus musculus; assay: In vivo anticonvulsant effects in the electroshock induced convulsion in mice after intraperitoneal administration and 15 min pretreatment time; type: functional; settings: ip

Chain of Glutamate receptor ionotropic, AMPA (Rattus norvegicus, UniProt P19491+P19492+P19493+P19490) (P19491 whole entry): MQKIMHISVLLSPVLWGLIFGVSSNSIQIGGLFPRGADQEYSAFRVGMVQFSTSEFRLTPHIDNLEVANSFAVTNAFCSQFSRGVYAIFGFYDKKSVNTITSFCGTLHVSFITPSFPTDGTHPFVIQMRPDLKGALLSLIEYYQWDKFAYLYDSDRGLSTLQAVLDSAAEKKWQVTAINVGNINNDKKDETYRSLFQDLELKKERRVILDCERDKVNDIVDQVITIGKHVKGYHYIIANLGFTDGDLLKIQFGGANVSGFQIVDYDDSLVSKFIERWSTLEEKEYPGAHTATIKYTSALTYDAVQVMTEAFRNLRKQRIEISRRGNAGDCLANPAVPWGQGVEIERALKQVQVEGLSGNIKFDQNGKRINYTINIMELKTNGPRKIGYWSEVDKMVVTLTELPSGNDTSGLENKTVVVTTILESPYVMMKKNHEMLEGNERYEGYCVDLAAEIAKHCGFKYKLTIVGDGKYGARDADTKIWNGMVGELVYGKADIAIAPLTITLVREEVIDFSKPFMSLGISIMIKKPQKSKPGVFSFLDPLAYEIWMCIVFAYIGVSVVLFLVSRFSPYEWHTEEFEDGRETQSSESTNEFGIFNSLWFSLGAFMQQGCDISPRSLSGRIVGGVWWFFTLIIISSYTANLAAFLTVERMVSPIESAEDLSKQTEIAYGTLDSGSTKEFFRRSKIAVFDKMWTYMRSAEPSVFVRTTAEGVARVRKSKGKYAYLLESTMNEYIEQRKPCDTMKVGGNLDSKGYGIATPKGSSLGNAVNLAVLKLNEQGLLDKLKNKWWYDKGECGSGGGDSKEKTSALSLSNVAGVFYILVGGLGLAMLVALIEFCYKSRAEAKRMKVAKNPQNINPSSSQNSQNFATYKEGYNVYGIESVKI
Chain of Glutamate receptor ionotropic, AMPA (Rattus norvegicus, UniProt P19491+P19492+P19493+P19490) (P19492 whole entry): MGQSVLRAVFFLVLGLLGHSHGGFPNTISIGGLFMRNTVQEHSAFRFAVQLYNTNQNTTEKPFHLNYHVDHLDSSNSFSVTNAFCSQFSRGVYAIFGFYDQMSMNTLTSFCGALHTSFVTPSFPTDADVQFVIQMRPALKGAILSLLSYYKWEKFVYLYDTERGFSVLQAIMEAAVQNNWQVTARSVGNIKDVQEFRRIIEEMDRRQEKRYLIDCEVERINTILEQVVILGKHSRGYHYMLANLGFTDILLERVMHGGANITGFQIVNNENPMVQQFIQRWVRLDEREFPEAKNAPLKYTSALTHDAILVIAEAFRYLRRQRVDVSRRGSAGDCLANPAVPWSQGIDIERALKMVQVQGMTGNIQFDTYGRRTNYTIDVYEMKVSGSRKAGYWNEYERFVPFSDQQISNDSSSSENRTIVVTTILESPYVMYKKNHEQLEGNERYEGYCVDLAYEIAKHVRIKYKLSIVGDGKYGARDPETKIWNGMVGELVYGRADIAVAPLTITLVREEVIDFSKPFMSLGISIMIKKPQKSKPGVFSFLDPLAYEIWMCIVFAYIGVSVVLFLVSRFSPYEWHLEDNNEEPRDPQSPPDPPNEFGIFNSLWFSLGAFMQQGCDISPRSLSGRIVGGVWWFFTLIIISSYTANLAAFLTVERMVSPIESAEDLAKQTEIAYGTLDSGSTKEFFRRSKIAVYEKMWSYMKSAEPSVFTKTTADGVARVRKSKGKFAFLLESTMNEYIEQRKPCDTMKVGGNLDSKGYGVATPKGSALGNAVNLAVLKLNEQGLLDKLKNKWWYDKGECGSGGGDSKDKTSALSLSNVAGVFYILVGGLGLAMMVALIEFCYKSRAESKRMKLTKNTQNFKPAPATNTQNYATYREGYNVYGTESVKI
Chain of Glutamate receptor ionotropic, AMPA (Rattus norvegicus, UniProt P19491+P19492+P19493+P19490) (P19493 whole entry): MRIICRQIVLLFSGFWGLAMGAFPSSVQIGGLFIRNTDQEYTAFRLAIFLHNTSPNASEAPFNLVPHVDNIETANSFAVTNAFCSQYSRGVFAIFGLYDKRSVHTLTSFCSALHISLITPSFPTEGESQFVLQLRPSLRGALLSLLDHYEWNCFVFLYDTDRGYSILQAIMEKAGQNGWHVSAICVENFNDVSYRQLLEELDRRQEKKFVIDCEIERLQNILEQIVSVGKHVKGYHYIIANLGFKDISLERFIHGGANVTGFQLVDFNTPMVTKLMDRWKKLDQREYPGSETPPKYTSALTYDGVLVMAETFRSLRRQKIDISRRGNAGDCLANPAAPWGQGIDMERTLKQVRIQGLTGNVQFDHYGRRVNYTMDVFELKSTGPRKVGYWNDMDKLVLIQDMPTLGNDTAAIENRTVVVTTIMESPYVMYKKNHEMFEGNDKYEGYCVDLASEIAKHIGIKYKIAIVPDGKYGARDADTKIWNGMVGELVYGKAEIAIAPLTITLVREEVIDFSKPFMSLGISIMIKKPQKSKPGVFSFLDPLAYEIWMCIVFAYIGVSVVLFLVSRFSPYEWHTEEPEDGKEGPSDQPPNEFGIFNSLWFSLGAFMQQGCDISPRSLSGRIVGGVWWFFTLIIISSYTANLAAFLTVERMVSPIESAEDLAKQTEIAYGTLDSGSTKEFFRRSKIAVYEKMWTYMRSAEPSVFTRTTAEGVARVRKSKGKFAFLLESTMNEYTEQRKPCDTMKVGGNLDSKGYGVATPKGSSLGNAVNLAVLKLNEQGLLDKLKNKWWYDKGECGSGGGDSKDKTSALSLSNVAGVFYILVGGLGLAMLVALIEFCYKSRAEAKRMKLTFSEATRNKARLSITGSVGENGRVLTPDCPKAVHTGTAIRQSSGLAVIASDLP
Chain of Glutamate receptor ionotropic, AMPA (Rattus norvegicus, UniProt P19491+P19492+P19493+P19490) (P19490 whole entry): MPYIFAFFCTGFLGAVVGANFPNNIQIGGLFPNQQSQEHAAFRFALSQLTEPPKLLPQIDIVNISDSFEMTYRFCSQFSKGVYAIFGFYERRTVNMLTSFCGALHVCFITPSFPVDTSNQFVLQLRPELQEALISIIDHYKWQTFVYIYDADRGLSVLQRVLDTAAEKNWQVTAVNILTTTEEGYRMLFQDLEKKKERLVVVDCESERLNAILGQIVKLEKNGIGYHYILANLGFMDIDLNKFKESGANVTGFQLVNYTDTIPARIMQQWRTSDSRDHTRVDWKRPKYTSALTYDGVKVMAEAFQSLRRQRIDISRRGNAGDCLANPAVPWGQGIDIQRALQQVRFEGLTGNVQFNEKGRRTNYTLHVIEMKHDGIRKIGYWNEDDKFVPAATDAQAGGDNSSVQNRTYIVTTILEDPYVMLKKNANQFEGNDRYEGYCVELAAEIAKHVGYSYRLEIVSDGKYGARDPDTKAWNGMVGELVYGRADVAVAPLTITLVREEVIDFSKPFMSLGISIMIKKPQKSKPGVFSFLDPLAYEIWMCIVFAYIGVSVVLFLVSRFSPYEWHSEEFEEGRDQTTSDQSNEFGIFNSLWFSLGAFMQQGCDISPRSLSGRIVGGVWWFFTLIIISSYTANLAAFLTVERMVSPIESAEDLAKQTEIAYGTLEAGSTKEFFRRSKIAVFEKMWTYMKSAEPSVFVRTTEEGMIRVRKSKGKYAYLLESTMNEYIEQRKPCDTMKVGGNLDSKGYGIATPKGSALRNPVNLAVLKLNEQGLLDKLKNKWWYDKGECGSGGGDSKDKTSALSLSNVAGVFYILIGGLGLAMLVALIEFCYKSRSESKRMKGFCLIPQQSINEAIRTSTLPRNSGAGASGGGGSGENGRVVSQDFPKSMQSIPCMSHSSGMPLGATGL

Row | IC50 [2] [µM] | IC50 [3] [µM] | Compound | ED50 [5] [mg/kg] | also measured
1 | 2.4 | 0.1 | O=P(O)(O)CNCc1cc(Br)cc2nc(O)c(O)nc12 |  | Protection [1]: 0%
2 | 1.3 |  | CC(=O)N(Cc1cc([N+](=O)[O-])cc2nc(O)c(O)nc12)C(C)P(=O)(O)O (centres undefined) |  | inhibition [4]: 31%
3 | 0.64 |  | O=[N+]([O-])c1cc(CNCCP(=O)(O)O)c2nc(O)c(O)nc2c1 | 18 | inhibition [4]: 8%
4 | 0.54 | 0.59 | C[C@H](NCc1cc(C(F)(F)F)cc2nc(O)c(O)nc12)P(=O)(O)O | 20 | 
5 | 4.5 | 0.12 | C[C@@H](NCc1cc(Br)cc2nc(O)c(O)nc12)C(=O)O |  | 
6 | 1.4 |  | C[C@H](NCc1cc(Br)cc2nc(O)c(O)nc12)P(=O)(O)O | 43 | 
7 | 0.38 | 19 | Br.O=C(O)CCNCc1cc([N+](=O)[O-])cc2nc(O)c(O)nc12 | 35 | 
8 | 0.29 |  | Br.CC(C)(NCc1cc([N+](=O)[O-])cc2nc(O)c(O)nc12)C(=O)O |  | Protection [1]: 0%; inhibition [6]: -9%
9 | 0.38 | 1.3 | Br.C[C@@H](NCc1cc([N+](=O)[O-])cc2nc(O)c(O)nc12)C(=O)O |  | Protection [1]: 0%
10 |  | 0.045 | CCC(NCc1cc(Br)cc2nc(O)c(O)nc12)P(=O)(O)O (centres undefined) |  | Protection [1]: 20%; inhibition [7]: 16%
11 |  | 0.11 | O=C(O)COCc1cc(Br)cc2nc(O)c(O)nc12 |  | Protection [8]: 0%; inhibition [7]: 4%
12 | 1.9 |  | COC(=O)C(C)(C)NCc1cc([N+](=O)[O-])cc2nc(O)c(O)nc12 |  | inhibition [4]: -3%
13 |  | 0.5 | NCc1ccc(NC(=O)C[C@@H]2CCc3cc(Cl)cc4[nH]c(=O)c(=O)n2c34)c(OCC(=O)O)c1 |  | IC50 [9]: Not Active
14 | 0.31 | 1.7 | Br.C[C@H](NCc1cc([N+](=O)[O-])cc2nc(O)c(O)nc12)C(=O)O |  | Protection [8]: 0%; ED50 [10]: 19 mg/kg; logP [11]: -1.93
15 | 1.2 |  | Br.CC[C@H](NCc1cc([N+](=O)[O-])cc2nc(O)c(O)nc12)C(=O)O |  | Protection [1]: 0%; inhibition [6]: 34%
16 | 0.08 |  | CCN(Cc1cc([N+](=O)[O-])cc2nc(O)c(O)nc12)[C@@H](C)P(=O)(O)O | 7 | ED50 [12]: 18 mg/kg; logP [11]: -3.5
17 | 0.12 |  | Br.CCN(Cc1cc([N+](=O)[O-])cc2nc(O)c(O)nc12)CP(=O)(O)O | 18 | inhibition [4]: 24%
18 | 1.3 | 0.42 | CC(OCc1cc([N+](=O)[O-])cc2nc(O)c(O)nc12)C(=O)O (centres undefined) |  | 

Row | IC50 [2] [µM] | IC50 [3] [µM] | Compound | ED50 [5] [mg/kg] | also measured
19 | 3 |  | C[C@@H](NCc1cc(Br)cc2nc(O)c(O)nc12)P(=O)(O)O | 12 | ED50 [12]: 18 mg/kg
20 | 3.8 |  | O=C(O)CCNCc1cc(Br)cc2nc(O)c(O)nc12 |  | inhibition [4]: 37%
21 |  | 0.12 | O=C(O)CSCc1cc(Br)cc2nc(O)c(O)nc12 |  | Protection [8]: 0%; inhibition [7]: 22%
22 | 4.7 | 0.04 | Br.O=C(O)CNCc1cc(Br)cc2nc(O)c(O)nc12 |  | Protection [1]: 0%
23 | 0.61 | 9 | O=C(O)CCCNCc1cc([N+](=O)[O-])cc2nc(O)c(O)nc12 |  | 
24 | 2 | 0.31 | O=C(O)COCc1cc([N+](=O)[O-])cc2nc(O)c(O)nc12 |  | 
25 | 0.17 | 0.032 | C[C@@H](NCc1cc([N+](=O)[O-])cc2[nH]c(=O)c(=O)[nH]c12)[P+]([O-])(O)O | 3 | 
26 | 1.2 | 0.006 | C[C@@H](NCc1cc(C(F)(F)F)cc2[nH]c(=O)c(=O)[nH]c12)P(=O)(O)O | 8 | 
27 | 2 | 0.3 | O=P(O)(O)CNCc1cc(C(F)(F)F)cc2nc(O)c(O)nc12 | 30 | 
28 | 0.2 |  | C[C@@H](CP(=O)(O)O)NCc1cc([N+](=O)[O-])cc2nc(O)c(O)nc12 | 10 | inhibition [4]: 15%
29 | 0.34 |  | Br.C[C@H](NCCc1cc([N+](=O)[O-])cc2nc(O)c(O)nc12)C(=O)O |  | Protection [1]: 0%; inhibition [6]: 22%
30 | 0.38 |  | C[C@H](NCc1cc([N+](=O)[O-])cc2nc(O)c(O)nc12)P(=O)(O)O | 8 | inhibition [4]: 51%
31 | 0.31 |  | CCN(Cc1cc([N+](=O)[O-])cc2nc(O)c(O)nc12)[C@H](C)P(=O)(O)O | 26 | inhibition [4]: 25%
32 | 0.29 | 1 | O=c1[nH]c2cc([N+](=O)[O-])cc(CNCP(=O)(O)O)c2[nH]c1=O | 7 | 
33 | 0.16 | 0.76 | Br.O=C(O)CNCc1cc([N+](=O)[O-])cc2nc(O)c(O)nc12 |  | ED50 [13]: 32 mg/kg
34 | 4.3 | 2.2 | C[C@H](NCc1cc(Br)cc2nc(O)c(O)nc12)C(=O)O |  | 
35 | 0.2 |  | C[C@H](CP(=O)(O)O)NCc1cc([N+](=O)[O-])cc2nc(O)c(O)nc12 | 9 | inhibition [4]: 6%

Row | Compound | IC50 [2] [µM] | IC50 [3] [µM] | ED50 [5] [mg/kg] | also measured
36 | CCN(Cc1cc(C(F)(F)F)cc2nc(O)c(O)nc12)[C@@H](C)P(=O)(O)O | 0.068 | 4 | 10 | 
37 | O=C(O)C1CCN(Cc2cc([N+](=O)[O-])cc3nc(O)c(O)nc23)CC1 | 0.07 | 3.9 | 44 | 
